Key:
[1] = test system: MOR; conditions: brain homogenates, inverse agonists; ref Wang et al., 2004; cited from earlier work
[2] = molecular target: KOR (Mus musculus, UniProt P33534); assay: Antagonism of U69,593-stimulated [35S]GTPγS binding in WT striatum; format: biochemical

Row | Compound | suppression of MOR basal signaling activity [1] | IC50 [2] | blockade of U69,593 stimulated G protein activation ([2]; antagonist 10 μM, increasing concentrations of U69,593, WT) | % competition ([2]; vs 10 μM U69,593, WT striatum, n=3)
1 | O=C1/C(=C/c2ccccc2)C[C@@]2(O)[C@H]3Cc4ccc(O)c5c4[C@@]2(CCN3CC2CC2)[C@H]1O5 [BNTX] | less than 10% |  |  | 
2 | Oc1ccc2c3c1O[C@H]1c4[nH]c5c(c4C[C@@]4(O)[C@@H](C2)N(CC2CC2)CC[C@]314)C[C@@]1(O)[C@H]2Cc3ccc(O)c4c3[C@@]1(CCN2CC1CC1)[C@H]5O4 [NorBNI, Norbinaltorphimine] |  | 6 ± 1.6 nM | fully blocks | 99 ± 7%

Reference: publication PMC4655192 (Neuropharmacology, 2015)
